Our source for the EC50 values is patent US11339156B2, “3-(1H-pyrazol-4-yl)pyridine allosteric modulators of the M4 muscarinic acetylcholine receptor” (Merck Sharp & Dohme Corp., priority 2017, dated 2022).

For this assay, the target named is T1, human M4 muscarinic acetylcholine receptor (Homo sapiens, UniProt P08173).
T1 construct: expressed in transfected cells
T1 sequence (P08173 1-479): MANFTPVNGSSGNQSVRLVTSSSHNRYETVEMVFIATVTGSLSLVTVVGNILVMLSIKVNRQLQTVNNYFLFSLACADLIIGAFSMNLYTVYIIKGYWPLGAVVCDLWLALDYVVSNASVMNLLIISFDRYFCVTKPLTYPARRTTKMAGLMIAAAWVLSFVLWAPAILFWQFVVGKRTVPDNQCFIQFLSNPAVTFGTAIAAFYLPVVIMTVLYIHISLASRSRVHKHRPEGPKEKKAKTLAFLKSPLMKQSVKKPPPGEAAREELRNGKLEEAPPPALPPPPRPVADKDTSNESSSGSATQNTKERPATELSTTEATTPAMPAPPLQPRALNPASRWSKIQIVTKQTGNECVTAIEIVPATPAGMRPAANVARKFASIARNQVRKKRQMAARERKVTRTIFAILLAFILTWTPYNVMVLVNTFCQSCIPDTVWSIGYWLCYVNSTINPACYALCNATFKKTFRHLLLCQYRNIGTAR
Nature of the assay: human FLIPR-based M4 PAM assay (CHO-K1 cells with human M4 receptor and Gαqi5, calcium dye fluorescence). The format is cell-based. As to conditions: inflection point of 4 parameter logistic fit; acetylcholine added at 20% of maximum response; read-out: M4PAM IP. Summed up: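 CHO-K1 cells were loaded with calcium dye at 37 °C for ~1 h. Fluorescence (ex 470–495/em 515–575 nm) was read for 4 min after test compound at increasing concentrations, then 3.5 min after acetylcholine at an EC20; sometimes a third addition at EC70 followed. The value is the inflection point of a 4-parameter logistic fit.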
On to `CC(C)C1(Cn2cc(-c3ccc(C#N)nc3-c3ccn4ccnc4c3)cn2)CC1` [Example 36, 6-imidazo[1,2-a]pyridin-7-yl-5-(1-{[1-(1-methylethyl)cyclo-propyl]methyl}-1H-pyrazol-4-yl)pyridine-2-carbonitrile], for which the EC50 was found to be 37.4 nM.
To `Cc1ccc(-c2cnn(CC3(C)CCCCC3)c2)c(-c2cnc3c(c2)ncn3C)n1` [Example 5, 3-methyl-6-(6-methyl-3-{1-[(1-methylcyclohexyl)methyl]-1H-pyrazol-4-yl}pyridin-2-yl)-3H-imidazo[4,5-b]pyridine] belongs 38.8 nM.
Take `Cc1cn2ccc(-c3nc(C#N)ccc3-c3cnn(CC(C)(C)CO)c3)cc2n1` [Example 127, 5-(1-(3-hydroxy-2,2-dimethylpropyl)-1H-pyrazol-4-yl)-6-(2-methylimidazo[1,2-a]pyridin-7-yl)picolinonitrile]: the EC50 is 139 nM.
In the case of `Cc1nc2cc(-c3ncc(F)cc3-c3cnn(CC(C)(C)C(C)(F)F)c3)ccc2n1C` [Example 103, 5-(3-(1-(3,3-difluoro-2,2-dimethylbutyl)-1H-pyrazol-4-yl)-5-fluoropyridin-2-yl)-1,2-dimethyl-1H-benzo[d]imidazole], the EC50 came to 117 nM.
As to `Cc1cn2ncc(-c3nc(C#N)ccc3-c3cnn(CC(C)(C)C(F)(F)F)c3)cc2n1` [Example 39, 6-(2-methylimidazo[1,2-b]pyridazin-7-yl)-5-[1-(3,3,3-trifluoro-2,2-dimethylpropyl)-1H-pyrazol-4-yl]pyridine-2-carbonitrile], the EC50 came to 75.8 nM.
Take `Cc1nc2cc(-c3nc(C#N)ccc3-c3cnn(CC(C)(F)C(C)(F)F)c3)ccc2n1C` (stereo not drawn) [Example 33, 6-(1,2-dimethyl-1H-benzimidazol-5-yl)-5-[1-(2,3,3-trifluoro-2-methylbutyl)-1H-pyrazol-4-yl]pyridine-2-carbonitrile]: the EC50 came out at 51 nM.
For `Cc1nc2cc(-c3nc(C#N)ccc3-c3cnn(CC4(C(C)(F)F)CC4)c3)ccc2n1C` [Example 62, 5-(1-{[1-(1,1-difluoroethyl)cyclo-propyl]methyl}-1H-pyrazol-4-yl)-6-(1,2-dimethyl-1H-benzimidazol-5-yl)pyridine-2-carbonitrile], the EC50 was determined as 66.1 nM.
To `Cc1nc2cc(-c3nc(C#N)ccc3-c3cnn(CC(C)(C)C(F)(F)F)c3)ccn2n1` [Example 101, 6-(2-methyl[1,2,4]triazolo [1,5-a]pyridin-7-yl)-5-[1-(3,3,3-trifluoro-2,2-dimethylpropyl)-1H-pyrazol-4-yl]pyridine-2-carbonitrile] belongs 58 nM; to `Cc1cn2ccc(-c3nc(C#N)ccc3-c3cnn(CC4(CC(C)C)CC4)c3)cc2n1` [Example 35, 6-(2-methylimidazo[1,2-a]pyridin-7-yl)-5-(1-{[1-(2-methylpropyl)cyclo-propyl]methyl}-1H-pyrazol-4-yl)pyridine-2-carbonitrile], 108 nM.
Turning to `Cc1ccc(-c2cnn(CCC(C)C)c2F)c(-c2ccn3ccnc3c2)n1` [Example 95, 7-{3-[5-fluoro-1-(3-methylbutyl)-1H-pyrazol-4-yl]-6-methylpyridin-2-yl}imidazo[1,2-a]pyridine], the EC50 is 79.9 nM.
To `N#Cc1ccc(-c2cnn(CC3CC34CC4)c2)c(-c2ccn3ccnc3c2)n1` (stereo not drawn) [Example 51, 6-imidazo[1,2-a]pyridin-7-yl-5-[1-(spiro[2.2]pent-1-ylmethyl)-1H-pyrazol-4-yl]pyridine-2-carbonitrile] belongs 54.6 nM; to `Cc1cn2ccc(-c3nc(C#N)ccc3-c3cnn(CC(C)(C)C)c3)cc2n1` [Example 81, 5-[1-(2,2-dimethylpropyl)-1H-pyrazol-4-yl]-6-(2-methylimidazo[1,2-a]pyridin-7-yl)pyridine-2-carbonitrile], 24.7 nM; to `Cn1cnc2cc(-c3nc(C#N)ccc3-c3cnn(CC4(C)CCOCC4)c3)ccc21` [Example 38, 6-(1-methyl-1H-benzimidazol-5-yl)-5-{1-[(4-methyltetrahydro-2H-pyran-4-yl)methyl]-1H-pyrazol-4-yl}pyridine-2-carbonitrile], 165 nM.
To `Cc1nc2cc(-c3ncc(F)cc3-c3cnn(CC4CC(F)(F)C4)c3)ccc2n1C` [Example 61, 5-(3-(1-((3,3-difluorocyclobutyl)methyl)-1H-pyrazol-4-yl)-5-fluoropyridin-2-yl)-1,2-dimethyl-1H-benzo[d]imidazole] belongs 161 nM.
To `CC(C)CCn1cc(-c2cccnc2-c2ccc3c(c2)C(=O)N(C2CCC2)C3)cn1` [Example 116, 2-cyclobutyl-6-{3-[1-(3-methylbutyl)-1H-pyrazol-4-yl]pyridin-2-yl}-2,3-dihydro-1H-isoindol-1-one] belongs 84.6 nM; to `FC(F)(F)C1(Cn2cc(-c3cc(Cl)cnc3-c3ccn4ccnc4c3)cn2)CC1` [Example 57, 7-[5-chloro-3-(1-{[1-(trifluoromethyl)cyclo-propyl]methyl}-1H-pyrazol-4-yl)pyridin-2-yl]imidazo[1,2-a]pyridine], 268 nM.
For `CC1(Cn2cc(-c3ccc(C#N)nc3-c3ccn4ccnc4c3)cn2)CCOC1` (racemic) [Example 108, 6-(imidazo[1,2-a]pyridin-7-yl)-5-(1-((3-methyltetrahydrofuran-3-yl)methyl)-1H-pyrazol-4-yl)picolinonitrile], the EC50 is 95.9 nM.
To `Cc1ccc(-c2cnn(CC3(C)CCC(F)(F)CC3)c2)c(-c2ccc3c(c2)C(=O)N(C)C3)n1` [Example 15, 6-(3-{1-[(4,4-difluoro-1-methylcyclohexyl)methyl]-1H-pyrazol-4-yl}-6-methylpyridin-2-yl)-2-methyl-2,3-dihydro-1H-isoindol-1-one] belongs 26.5 nM; to `Cc1ccc(-c2cnn(CC34CC(C3)C4)c2)c(-c2ccc3c(c2)C(=O)N(C)C3)n1` [Example 7, 6-{3-[1-(bicyclo[1.1.1]pent-1-ylmethyl)-1H-pyrazol-4-yl]-6-methylpyridin-2-yl}-2-methyl-2,3-dihydro-1H-isoindol-1-one], 17.6 nM.
In the case of `Cc1ccc(-c2cnn(CCC(C)(C)F)c2)c(-c2ccc3c(c2)C(=O)N(C)C3)n1` [Example 9, 6-{3-[1-(3-fluoro-3-methylbutyl)-1H-pyrazol-4-yl]-6-methylpyridin-2-yl}-2-methyl-2,3-dihydro-1H-isoindol-1-one], the EC50 was found to be 80.8 nM.
To `Cc1ccc(-c2cnn(CC(C)C)c2)c(-c2ccc3c(c2)C(=O)N(C2CC2)C3)n1` [Example 96, 2-cyclopropyl-6-{6-methyl-3-[1-(2-methylpropyl)-1H-pyrazol-4-yl]pyridin-2-yl}-2,3-dihydro-1H-isoindol-1-one] belongs 197 nM.
In the case of `Cc1nc2cc(-c3nc(C#N)ccc3-c3cnn(C[C@]4(F)C[C@@H](F)C4)c3)ccc2n1C` [Example 128, 5-(1-(((1s,3s)-1,3-difluorocyclobutyl)methyl)-1H-pyrazol-4-yl)-6-(1,2-dimethyl-1H-benzo[d]imidazol-5-yl)picolinonitrile], the EC50 was determined as 48 nM.
To `CSc1cnc(-c2ccc3c(c2)C(=O)NC3)c(-c2cnn(CCC(C)C)c2)c1` [Example 137, 6-(3-(1-isopentyl-1H-pyrazol-4-yl)-5-(methylthio)pyridin-2-yl)isoindolin-1-one] belongs 345 nM.
In the case of `Cc1cn2ccc(-c3nc(C#N)ccc3-c3cnn(CC(F)(F)C(F)(F)C(F)F)c3)cc2n1` [Example 23, 5-[1-(2,2,3,3,4,4-hexafluorobutyl)-1H-pyrazol-4-yl]-6-(2-methylimidazo[1,2-a]pyridin-7-yl)pyridine-2-carbonitrile], the EC50 was determined as 42.3 nM.
Consider `N#Cc1ccc(-c2cnn(CC(F)(F)C(F)(F)C(F)(F)F)c2)c(-c2ccn3ccnc3c2)n1` [Example 24, 5-[1-(2,2,3,3,4,4,4-heptafluorobutyl)-1H-pyrazol-4-yl]-6-imidazo[1,2-a]pyridin-7-ylpyridine-2-carbonitrile], for which the EC50 came out at 89.9 nM.
To `Cc1ccc(-c2cnn(CC3CC3(C)C)c2)c(-c2ccn3ccnc3c2)n1` (stereo not drawn) [Example 109, 7-(3-{1-[(2,2-dimethylcyclopropyl)methyl]-1H-pyrazol-4-yl}-6-methylpyridin-2-yl)imidazo[1,2-a]pyridine] belongs 75.9 nM; to `Cc1cn2ccc(-c3nc(C#N)ccc3-c3cnn(CC(F)(F)C(F)F)c3)cc2n1` [Example 22, 6-(2-methylimidazo[1,2-a]pyridin-7-yl)-5-[1-(2,2,3,3-tetrafluoropropyl)-1H-pyrazol-4-yl]pyridine-2-carbonitrile], 202 nM; to `Cc1nc(-c2ccc3c(c2)nc(C)n3C)c(-c2cnn(CC(C)(C)C(F)(F)F)c2)cc1F` [Example 131, 5-(5-fluoro-6-methyl-3-(1-(3,3,3-trifluoro-2,2-dimethylpropyl)-1H-pyrazol-4-yl)pyridin-2-yl)-1,2-dimethyl-1H-benzo[d]imidazole], 77.3 nM.
With `Cc1cn2ccc(-c3nc(C#N)ccc3-c3cnn(CC(O)C(C)C)c3)cc2n1` (stereo not drawn) [Example 90, 5-[1-(2-hydroxy-3-methylbutyl)-1H-pyrazol-4-yl]-6-(2-methylimidazo[1,2-a]pyridin-7-yl)pyridine-2-carbonitrile], the EC50 amounted to 92.2 nM.
Turning to `CCC(C)(C)Cn1cc(-c2ccc(C#N)nc2-c2ccn3ccnc3c2)cn1` [Example 91, 5-[1-(2,2-dimethylbutyl)-1H-pyrazol-4-yl]-6-imidazo[1,2-a]pyridin-7-ylpyridine-2-carbonitrile], the EC50 turned out to be 17.1 nM.
